Results taken from patent publication US6737383B1, “Herbicidal oxadiazolidines” (priority 1999, dated 2004).

Tests used:
[1] = tested on: corn; test: Test B pre/postemergence corn; type: in vivo, Zea mays
How it was run: (§1)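 Herbicidal effect was estimated by eye on a ten-point control scale after plants spent twelve to sixteen days in a greenhouse following soil or foliar treatment. Foliar sprays targeted plants at one to four leaves; all doses were formulated in a non-phytotoxic solvent with surfactant.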

[2] = tested on: rape; test: Test B pre/postemergence rape; type: in vivo, Brassica napus
How it was run: as §1

[3] = tested on: morningglory; test: Test B pre/postemergence morningglory; type: in vivo, Ipomoea hederacea
How it was run: as §1

[4] = tested on: blackgrass; test: Test B pre/postemergence blackgrass; type: in vivo, Alopecurus myosuroides
How it was run: as §1

[5] = tested on: purple nutsedge; test: Test B pre/postemergence purple nutsedge; type: in vivo, Cyperus rotundus
How it was run: as §1

[6] = tested on: pigweed; test: Test B pre/postemergence pigweed; type: in vivo, Amaranthus retroflexus
How it was run: as §1

[7] = tested on: velvetleaf; test: Test B pre/postemergence velvetleaf; type: in vivo, Abutilon theophrasti
How it was run: as §1

[8] = tested on: bedstraw; test: Test B pre/postemergence bedstraw; type: in vivo, Galium aparine; conditions: Preemergence; for Bedstraw plant response rating: scale 0 to 10, 0 is no effect, 10 is complete control
How it was run: as §1

[9] = tested on: smallflower flatsedge; test: Test B flood test smallflower flatsedge; type: in vivo, Cyperus difformis
How it was run: (§2)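 Read-out is a visual response score from 0 (no effect) to 10 (complete control), assigned by comparison with untreated controls. Treatment was applied at the 2-leaf stage, and plants stayed in the greenhouse for twelve to sixteen days before scoring.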

[10] = tested on: crabgrass; test: Test B pre/postemergence crabgrass; type: in vivo, Digitaria sanguinalis
How it was run: as §1

[11] = tested on: wheat; test: Test B pre/postemergence wheat; type: in vivo, Triticum aestivum
How it was run: as §1

[12] = tested on: wild oat; test: Test B pre/postemergence wild oat; type: in vivo, Avena fatua
How it was run: as §1

[13] = tested on: giant foxtail; test: Test B pre/postemergence giant foxtail; type: in vivo, Setaria faberii
How it was run: as §1

[14] = tested on: cocklebur; test: Test B pre/postemergence cocklebur; type: in vivo, Xanthium strumarium
How it was run: as §1

[15] = tested on: sugar beet; test: Test B pre/postemergence sugar beet; type: in vivo, Beta vulgaris
How it was run: as §1

[16] = tested on: bamyardgrass; test: Test B flood test barnyardgrass; type: in vivo, Echinochloa crus-galli
How it was run: as §2

[17] = tested on: rice; test: Test B flood test rice; type: in vivo, Oryza sativa
How it was run: as §2

[18] = tested on: surinam grass; test: Test B pre/postemergence surinam grass; type: in vivo, Brachiaria decumbens
How it was run: as §1

[19] = tested on: duck salad; test: Test B flood test duck salad; type: in vivo, Heteranthera limosa
How it was run: as §2

[20] = tested on: soybean; test: Test B pre/postemergence soybean; type: in vivo, Glycine max
How it was run: as §1

[21] = Postemergence, Rate 62 g/ha, scale of 0 to 10, 0 is no effect, 10 is complete control
[22] = Postemergence, Rate 125 g/ha, scale 0 to 10, 0 is no effect, 10 is complete control
[23] = Postemergence, Rate 250 g/ha, scale 0 to 10
[24] = Postemergence, Rate 500 g/ha, scale 0 to 10, 0 is no effect, 10 is complete control
[25] = Preemergence, Rate 62 g/ha, scale of 0 to 10 where 0 is no effect and 10 is complete control
[26] = Preemergence, Rate 125 g/ha, scale 0 to 10, 0 is no effect, 10 is complete control
[27] = Preemergence, Rate 500 g/ha, scale of 0 to 10 where 0 is no effect and 10 is complete control
[28] = Preemergence, Rate 250 g/ha, scale 0 to 10, 0 is no effect, 10 is complete control
[29] = Rate 62 g/ha, flood test species, Pre-emergence, visual evaluation after twelve to sixteen days
[30] = Rate 125 g/ha, under heading Pre-emergence, flood test species, visual evaluation after twelve to sixteen days
[31] = Rate 250 g/ha, Pre-emergence (flood test species), scale 0 to 10, 0 is no effect, 10 is complete control
[32] = Rate 500 g/ha, Pre-emergence section of Table B, 0 to 10 scale (0 no effect, 10 complete control)

CCc1nc(C)c(Cn2c(=O)on(C(=O)N(c3ccc(Cl)cc3)C(C)C)c2=O)s1 [Compound 499]
Corn plant response rating [1, 21]: 0
Corn plant response rating [1, 22]: 0
Corn plant response rating [1, 23]: 0
Plant response rating, Corn [1, 24]: 0
Plant response rating, Corn [1, 25]: 0
Corn plant response rating [1, 26]: 0
Corn plant response rating [1, 27]: 0
Rape plant response rating [2, 21]: 0
Rape plant response rating [2, 22]: 0
Plant response rating, Rape [2, 24]: 0
Plant response rating, Rape [2, 25]: 0
Rape plant response rating [2, 26]: 0
Rape plant response rating [2, 27]: 0
Morningglory plant response rating [3, 21]: 3
Morningglory plant response rating [3, 22]: 3
Plant response rating, Morningglory [3, 24]: 6
Plant response rating, Morningglory [3, 25]: 0
Morningglory plant response rating [3, 26]: 0
Morningglory plant response rating [3, 27]: 0
Blackgrass plant response rating [4, 21]: 0
Blackgrass plant response rating [4, 22]: 0
Blackgrass plant response rating [4, 23]: 2
Plant response rating, Blackgrass [4, 24]: 4
Plant response rating, Blackgrass [4, 25]: 0
Blackgrass plant response rating [4, 26]: 0
Blackgrass plant response rating [4, 28]: 0
Blackgrass plant response rating [4, 27]: 1
Nutsedge plant response rating [5, 21]: 0
Nutsedge plant response rating [5, 22]: 0
Plant response rating, Nutsedge [5, 24]: 0
Nutsedge plant response rating [5, 26]: 0
Nutsedge plant response rating [5, 27]: 0
Redroot pigweed plant response rating [6, 21]: 0
Redroot pigweed plant response rating [6, 22]: 0
Plant response rating, Redroot pigweed [6, 24]: 0
Plant response rating, Redroot pigweed [6, 25]: 0
Redroot pigweed plant response rating [6, 26]: 0
Redroot pigweed plant response rating [6, 27]: 0
Velvetleaf plant response rating [7, 21]: 0
Velvetleaf plant response rating [7, 22]: 0
Plant response rating, Velvetleaf [7, 24]: 0
Plant response rating, Velvetleaf [7, 25]: 0
Velvetleaf plant response rating [7, 26]: 0
Velvetleaf plant response rating [7, 27]: 0
Plant response rating, Bedstraw ([8]; Rate 62 g/ha, scale of 0 to 10 where 0 is no effect and 10 is complete control): 0
Bedstraw plant response rating ([8]; Rate 125 g/ha): 0
Bedstraw plant response rating ([8]; Rate 250 g/ha): 0
Plant response rating, S. Flatsedge (0 to 10 scale, 0 is no effect, 10 is complete control) [9, 29]: 0
S. Flatsedge plant response rating (0 to 10 scale, 0 is no effect, 10 is complete control) [9, 30]: 0
S. Flatsedge plant response rating [9, 31]: 0
S. Flatsedge plant response rating [9, 32]: 0
Crabgrass plant response rating [10, 21]: 0
Crabgrass plant response rating [10, 22]: 0
Crabgrass plant response rating [10, 23]: 0
Plant response rating, Crabgrass [10, 24]: 0
Plant response rating, Crabgrass [10, 25]: 4
Crabgrass plant response rating [10, 26]: 6
Crabgrass plant response rating [10, 27]: 8
Wheat plant response rating [11, 21]: 0
Wheat plant response rating [11, 22]: 0
Plant response rating, Wheat [11, 24]: 0
Plant response rating, Wheat [11, 25]: 0
Wheat plant response rating [11, 26]: 0
Wheat plant response rating [11, 27]: 0
Wild oats plant response rating [12, 21]: 0
Wild oats plant response rating [12, 22]: 0
Plant response rating, Wild oats [12, 24]: 0
Plant response rating, Wild oats [12, 25]: 0
Wild oats plant response rating [12, 26]: 0
Wild oats plant response rating [12, 27]: 0
Giant foxtail plant response rating [13, 21]: 0
Giant foxtail plant response rating [13, 22]: 0
Plant response rating, Giant foxtail [13, 24]: 2
Plant response rating, Giant foxtail [13, 25]: 3
Giant foxtail plant response rating [13, 26]: 5
Giant foxtail plant response rating [13, 27]: 10
Cocklebur plant response rating [14, 21]: 0
Cocklebur plant response rating [14, 22]: 0
Cocklebur plant response rating [14, 23]: 2
Plant response rating, Cocklebur [14, 24]: 4
Cocklebur plant response rating [14, 26]: 0
Cocklebur plant response rating [14, 28]: 0
Cocklebur plant response rating [14, 27]: 4
Sugarbeets plant response rating [15, 21]: 0
Sugarbeets plant response rating [15, 22]: 0
Plant response rating, Sugarbeets [15, 24]: 0
Plant response rating, Sugarbeets [15, 25]: 0
Sugarbeets plant response rating [15, 26]: 0
Sugarbeets plant response rating [15, 27]: 0
Plant response rating, Barnyardgrass (0 to 10 scale, 0 is no effect, 10 is complete control) [16, 29]: 0
Barnyardgrass plant response rating (0 to 10 scale, 0 is no effect, 10 is complete control) [16, 30]: 0
Barnyardgrass plant response rating [16, 31]: 0
Barnyardgrass plant response rating [16, 32]: 0
Plant response rating, Rice (0 to 10 scale, 0 is no effect, 10 is complete control) [17, 29]: 0
Rice plant response rating (0 to 10 scale, 0 is no effect, 10 is complete control) [17, 30]: 0
Rice plant response rating [17, 31]: 0
Rice plant response rating [17, 32]: 0
B. signalgrass plant response rating [18, 21]: 0
B. signalgrass plant response rating [18, 22]: 0
B. signalgrass plant response rating ([18]; Postemergence, Rate 250 g/ha, scale 0 to 10, 0 no effect, 10 complete control): 0
Plant response rating, B. signalgrass [18, 24]: 0
Plant response rating, B. signalgrass [18, 25]: 0
B. signalgrass plant response rating [18, 26]: 0
B. signalgrass plant response rating [18, 28]: 0
B. signalgrass plant response rating ([18]; Preemergence, Rate 500 g/ha, scale 0 to 10, 0 is no effect, 10 is complete control): 2
Plant response rating, Ducksalad (0 to 10 scale, 0 is no effect, 10 is complete control) [19, 29]: 0
Ducksalad plant response rating (0 to 10 scale, 0 is no effect, 10 is complete control) [19, 30]: 0
Ducksalad plant response rating [19, 31]: 0
Ducksalad plant response rating [19, 32]: 0
Soybean plant response rating [20, 21]: 0
Soybean plant response rating [20, 22]: 1
Plant response rating, Soybean [20, 24]: 3
Plant response rating, Soybean [20, 25]: 0
Soybean plant response rating [20, 26]: 0
Soybean plant response rating [20, 27]: 0
